Test system: thrombus
Assay: Anti-thrombosis properties (metal helix in vena cava inferior, based on Friedman)
Format: in vivo, female Wistar rats
Conditions: from Table IV
Description: The technique used is based on that disclosed by Friedman (Amer. J. Med. Sci., 253, 83, 1967). […] A 1.8 cm long sharp metal helix is introduced in the lumen of the vessel at the level of the renal fork and "screwed" toward the iliac veins. Five hours later, the animal is again anesthetized with ether. […] The helix, together with the thrombus it retains, is taken out after carefully opening the vena cava throughout the length involved; it is then dried by repeated dabbing with filter paper and is weighed a first time. Immediately thereafter, the helix is freed from its thrombus in a physiological saline bath, and is then again dried and weighed. The difference in weight gives the weight of the thrombus. It was found on histological examination that these were white thrombi.
Different groups of 10 rats each are treated by gastric intubation with one of the test derivatives, 48 hours, 24 hours and 2 hours prior to the implantation of the metal helix. Samples were taken five hours after said implantation.
Identical tests were carried out with dipyridamole and acetylsalicylic acid.

SMILES | anti-thrombosis activity (in words)
CC(=O)Oc1ccccc1C(=O)O [acetylsalicylic acid] | little activity
OCCN(CCO)c1nc(N2CCCCC2)c2nc(N(CCO)CCO)nc(N3CCCCC3)c2n1 [dipyridamole] | no activity

From US4147787A, “4,5,6,7-Tetrahydro-thieno[2,3-c]-and [3,2-c]-pyridines, and therapeutic compositions containing the same” (Parcor, priority 1977, dated 1979)
